Data published in US20150245612A1, “ACTIVE INGREDIENT FOR CONTROLLING SPIDER MITES” (BAYER CROPSCIENCE AG, priority 2014, published 2015).

Assays:
Format in all cases: in vivo
Eutetranychus anneckei = Eutetranychus anneckei test; outdoor spray treatment (EUTEOR), orange trees; conditions: EUTEOR on C. sinensis
Excerpt: Eutetranychus anneckei Test; Outdoor Spray Treatment (EUTEOR)
(§1) To produce an appropriate active ingredient formulation, 1 part by weight of active ingredient is mixed with the stated amounts of water to the desired concentration. Added to the spray liquor is 0.1% a.i. Crovol.
(§2) Three two-year-old orange trees (Citrus sinensis) affected by all stages of the oriental spider mite (Eutetranychus anneckei) are sprayed with an active ingredient formulation of each desired concentration. Application is effected with a motorized backpack sprayer. In accordance with common practice, the water application rate is 1000 l/Ha. One spray application is conducted in each case.
(§3) After the desired time, the remaining mites per leaf are counted and calculated as the efficacy by the Abbott formula:
(§4) B=treated plots K=untreated control plots

Brevipalpus phoenicis = Brevipalpus phoenicis test; outdoor spray treatment (BRVPPH), orange trees; conditions: BRVPPH on C. sinensis
Excerpt: Brevipalpus phoenicis Test; Outdoor Spray Treatment (BRVPPH)
as §1
as §2, with “eight-year-old” for “two-year-old”, “false” for “oriental”, “(Brevipalpus phoenicis)” for “(Eutetranychus anneckei)”
as §3, §4

Phyllocoptruta oleivora = Phyllocoptruta oleivora test; outdoor spray treatment (PHYUOL), orange trees; conditions: PHYUOL on C. sinensis
Excerpt: Phyllocoptruta oleivora Test; Outdoor Spray Treatment (PHYUOL)
as §1
as §2, with “15-year-old” for “two-year-old”, “citrus rust” for “oriental spider”, “(Phyllocoptruta oleivora)” for “(Eutetranychus anneckei)”
as §3, §4

Panonychus citri [1] = experiment: Panonychus citri test; outdoor spray treatment (METTCI), orange trees; conditions: METTCI on C. sinensis
Excerpt: Panonychus citri test; outdoor spray treatment (METTCI)
To produce an appropriate active ingredient formulation, 1 part by weight of active ingredient is mixed with the stated amounts of water to the desired concentration. Added to the spray liquor is 0.1% a.i. rapeseed oil methyl ester.
as §2, with “citrus red” for “oriental spider”, “(Panonychus citri)” for “(Eutetranychus anneckei)”
as §3, §4

Panonychus citri [2] = experiment: Panonychus citri test; outdoor spray treatment (METTCI), lemon trees; conditions: METTCI on C. limon
Excerpt: (§5) Panonychus citri Test; Outdoor Spray Treatment (METTCI)
as §1
as §2, with “lemon” for “orange”, “limon)” for “sinensis)”, “citrus red” for “oriental spider”, “(Panonychus citri)” for “(Eutetranychus anneckei)”
as §3, §4

Panonychus citri [3] = experiment: Panonychus citri test; outdoor spray treatment (METTCI), satsuma trees; conditions: METTCI on C. unshiu
Excerpt: as §5, §1
as §2, with “5-year-old satsuma” for “two-year-old orange”, “unshiu)” for “sinensis)”, “citrus red” for “oriental spider”, “(Panonychus citri)” for “(Eutetranychus anneckei)”, “1850” for “1000”
as §3, §4

[4] = 100 g ai/ha/mch, + Crovol 0.1%, 7 Dat
[5] = 100 g ai/ha/mch, + Crovol 0.1%, 14 Dat

Cc1nn(C)c(/C(OC(=O)C(C)(C)C)=C(\C#N)c2ccc(C(C)(C)C)cc2)c1C [Cyenopyrafen, reference compound]
Efficacy (% Abbott) (Eutetranychus anneckei; 150 g ai/ha/mch, 8 Dat): 100 % Abbott | Efficacy (% Abbott) (Eutetranychus anneckei; 150 g ai/ha/mch, 16 Dat): 96 % Abbott | Efficacy (% Abbott) (Eutetranychus anneckei; 150 g ai/ha/mch, 22 Dat): 100 % Abbott | Efficacy (% Abbott) (Eutetranychus anneckei; 150 g ai/ha/mch, 30 Dat): 83 % Abbott | Efficacy (% Abbott) (Eutetranychus anneckei; 150 g ai/ha/mch, 36 Dat): 63 % Abbott | Efficacy (% Abbott) (Brevipalpus phoenicis; 150 g ai/ha/mch, 3 Dat): 74.4 % Abbott | Efficacy (% Abbott) (Brevipalpus phoenicis; 150 g ai/ha/mch, 7 Dat): 92.5 % Abbott | Efficacy (% Abbott) (Brevipalpus phoenicis; 150 g ai/ha/mch, 14 Dat): 94.7 % Abbott | Efficacy (% Abbott) (Brevipalpus phoenicis; 150 g ai/ha/mch, 21 Dat): 100 % Abbott | Efficacy (% Abbott) (Brevipalpus phoenicis; 150 g ai/ha/mch, 49 Dat): 78 % Abbott | Efficacy (% Abbott) (Brevipalpus phoenicis; 150 g ai/ha/mch, 60 Dat): 97.6 % Abbott | Efficacy (% Abbott) (Phyllocoptruta oleivora; 150 g ai/ha/mch, 5 Dat): 32 % Abbott | Efficacy (% Abbott) (Phyllocoptruta oleivora; 150 g ai/ha/mch, 13 Dat): 29 % Abbott | Efficacy (% Abbott) (Phyllocoptruta oleivora; 150 g ai/ha/mch, 19 Dat): 31 % Abbott | Efficacy (% Abbott) (Phyllocoptruta oleivora; 150 g ai/ha/mch, 27 Dat): 32 % Abbott

CCC(C)(C)C(=O)OC1=C(c2ccc(Cl)cc2Cl)C(=O)OC12CCCCC2 [Spirodiclofen, reference compound]
Efficacy (% Abbott) (Panonychus citri [1]; 48 g ai/ha/mch, 1 Dat): 29 % Abbott | Efficacy (% Abbott) (Panonychus citri [1]; 48 g ai/ha/mch, 5 Dat): 90 % Abbott | Efficacy (% Abbott) (Panonychus citri [2]; 48 g ai/ha/mch, 6 Dat): 58 % Abbott | Efficacy (% Abbott) (Panonychus citri [2]; 48 g ai/ha/mch, 23 Dat): 100 % Abbott | Efficacy (% Abbott) (Panonychus citri [3]; 144 g ai/ha/mch, 4 Dat): 70.7 % Abbott | Efficacy (% Abbott) (Panonychus citri [3]; 144 g ai/ha/mch, 7 Dat): 85.2 % Abbott | Efficacy (% Abbott) (Panonychus citri [3]; 144 g ai/ha/mch, 14 Dat): 78 % Abbott

Cn1nc(C(F)(F)C(F)(F)F)c(C(F)(F)F)c1C(=O)Nc1ccc(Cl)c(C(=O)NCc2ccccc2)c1 [Compound (I)]
Efficacy (% Abbott) (Panonychus citri [1]; 50 g ai/ha/mch, + RME 0.1%, 1 Dat): 85 % Abbott | Efficacy (% Abbott) (Panonychus citri [1]; 50 g ai/ha/mch, + RME 0.1%, 5 Dat): 99 % Abbott | Efficacy (% Abbott) (Panonychus citri [1]; 100 g ai/ha/mch, + RME 0.1%, 1 Dat): 99 % Abbott | Efficacy (% Abbott) (Panonychus citri [1]; 100 g ai/ha/mch, + RME 0.1%, 5 Dat): 100 % Abbott | Efficacy (% Abbott) (Panonychus citri [2]; 100 g ai/ha/mch, + Crovol 0.1%, 6 Dat): 90 % Abbott | Efficacy (% Abbott) (Panonychus citri [2]; 100 g ai/ha/mch, + Crovol 0.1%, 23 Dat): 99 % Abbott | Efficacy (% Abbott) (Eutetranychus anneckei; 100 g ai/ha/mch, + Crovol 0.1%, 8 Dat): 99 % Abbott | Efficacy (% Abbott) (Eutetranychus anneckei; 100 g ai/ha/mch, + Crovol 0.1%, 16 Dat): 99 % Abbott | Efficacy (% Abbott) (Eutetranychus anneckei; 100 g ai/ha/mch, + Crovol 0.1%, 22 Dat): 100 % Abbott | Efficacy (% Abbott) (Eutetranychus anneckei; 100 g ai/ha/mch, + Crovol 0.1%, 30 Dat): 98 % Abbott | Efficacy (% Abbott) (Eutetranychus anneckei; 100 g ai/ha/mch, + Crovol 0.1%, 36 Dat): 93 % Abbott | Efficacy (% Abbott) (Brevipalpus phoenicis; 100 g ai/ha/mch, + Crovol 0.1%, 3 Dat): 88.4 % Abbott | Efficacy (% Abbott) (Brevipalpus phoenicis; [4]): 95 % Abbott | Efficacy (% Abbott) (Brevipalpus phoenicis; [5]): 100 % Abbott | Efficacy (% Abbott) (Brevipalpus phoenicis; 100 g ai/ha/mch, + Crovol 0.1%, 21 Dat): 100 % Abbott | Efficacy (% Abbott) (Brevipalpus phoenicis; 100 g ai/ha/mch, + Crovol 0.1%, 49 Dat): 92.7 % Abbott | Efficacy (% Abbott) (Brevipalpus phoenicis; 100 g ai/ha/mch, + Crovol 0.1%, 60 Dat): 100 % Abbott | Efficacy (% Abbott) (Phyllocoptruta oleivora; 75 g ai/ha/mch, + Crovol 0.1%, 5 Dat): 36 % Abbott | Efficacy (% Abbott) (Phyllocoptruta oleivora; 75 g ai/ha/mch, + Crovol 0.1%, 13 Dat): 45 % Abbott | Efficacy (% Abbott) (Phyllocoptruta oleivora; 75 g ai/ha/mch, + Crovol 0.1%, 19 Dat): 64 % Abbott | Efficacy (% Abbott) (Phyllocoptruta oleivora; 75 g ai/ha/mch, + Crovol 0.1%, 27 Dat): 72 % Abbott | Efficacy (% Abbott) (Phyllocoptruta oleivora; 100 g ai/ha/mch, + Crovol 0.1%, 5 Dat): 77 % Abbott | Efficacy (% Abbott) (Phyllocoptruta oleivora; 100 g ai/ha/mch, + Crovol 0.1%, 13 Dat): 84 % Abbott | Efficacy (% Abbott) (Phyllocoptruta oleivora; 100 g ai/ha/mch, + Crovol 0.1%, 19 Dat): 94 % Abbott | Efficacy (% Abbott) (Phyllocoptruta oleivora; 100 g ai/ha/mch, + Crovol 0.1%, 27 Dat): 96 % Abbott | Efficacy (% Abbott) (Panonychus citri [3]; 100 g ai/ha/mch, + Crovol 0.1%, 4 Dat): 100 % Abbott | Efficacy (% Abbott) (Panonychus citri [3]; [4]): 98.1 % Abbott | Efficacy (% Abbott) (Panonychus citri [3]; [5]): 97.6 % Abbott
